According to patent US11147854B2, “Peptides having immunomodulatory properties” (Riptide Bioscience, Inc., priority 2018, dated 2021):

Tests used:
[1] = tested on: macrophages from healthy controls; assay: Viability of peripheral blood derived macrophages from healthy volunteers (PrestoBlue assay); format: cell-based, human; conditions: healthy control with low arginase:IFNg ratio of 3.6, peptides 0-100 uM, 96 hours
Method: (§1) Peripheral blood derived macrophages were cultured from healthy volunteers and scleroderma patients and cultured in MCS-F for 7 days prior to qPCR for arginasel (M2 marker) or IFNg (M1 marker), followed by treatment with RP peptides at a range of doses 0-100 uM. After 48 hours media were exchanged and cells were retreated with the peptides. After 96 hours cell viability was assayed by PrestoBlue assay. (FIG. 4A) Macrophages from a healthy control with low arginase:IFNg ratio of 3.6, were resistant to the effects of RP peptides of interest (RP182, RP185, RP832C, RP837) on viability.

CT26 Xenograft = assay: Mouse tumor inhibition model with and without anti-PD1 antibody (FIG. 2); format: in vivo; conditions: peptide 10 mg/kg qd
Method: The peptides RP832C and RP185 were administered at 10 mg/kg qd. The anti-PD1 antibody was administered intraperitoneally at 200 ug twice per week.

[2] = tested on: macrophages from scleroderma patients; assay: Viability of peripheral blood derived macrophages from scleroderma patients (PrestoBlue assay); format: cell-based, human; conditions: for macrophage viability: scleroderma (SSc) patient with raised arginase:IFNg ratio of 8.8, even at 0.01 uM, 96 hours, PrestoBlue; for effect on scleroderma macrophage samples (high arginase:IFNg) versus healthy control samples (low arginase:IFNg) (FIG. 4A-4B): FIG. 4B versus FIG. 4A; for viability of macrophages (FIG. 3): samples from human scleroderma patients, 96 hours incubation, various concentrations
Method: as §1

| Sequence | macrophage viability [1] | tumor volume (CT26 Xenograft) | macrophage viability [2] | effect on scleroderma macrophage samples (high arginase:IFNg) versus healthy control samples (low arginase:IFNg) (FIG. 4A-4B) [2] | viability of macrophages (FIG. 3) [2] |
| --- | --- | --- | --- | --- | --- |
| FFKKFFKKFK [RP185] | resistant | reduce tumor volume | greatly reduced viability |  |  |
| FWKRFVRKWR [RP837] | resistant |  | greatly reduced viability | selective effect | reduce viability |
| KFRKAFKRFF [RP182] | resistant |  | greatly reduced viability |  |  |
| RWKFGGFKWR [RP832C] | resistant | reduce tumor volume | greatly reduced viability | selective effect | reduce viability |
